Experiments:
[1] = refractive index (Na D-line) (dimensionless); conditions: 101.33 kPa, Liquid, Standard Abbe refractometry
[2] = Liquid; for mass density: Vibrating tube method; for speed of sound: Vibrating Tube Densimeter
[3] = xn = mol fraction of the nth substance listed; conditions: 313.15 K, 101 kPa, Liquid; for speed of sound: Vibrating Tube Densimeter; for mass density: Vibrating tube method
[4] = refractive index (Na D-line) (dimensionless); xn = mol fraction of the nth substance listed; conditions: 313.15 K, 101 kPa, Liquid, Standard Abbe refractometry

c1ccccc1 [benzene]
[1]
Conditions	refractive index
298.15 K	1.49775
313.15 K	1.48777

[2]
Conditions	mass density, 298.15 K [kg/m3]	mass density, 313.15 K [kg/m3]	speed of sound, 313.15 K [m/s]
101 kPa	–	857.5	1230.5
101.33 kPa	873.5	–	–

c1ccccc1 [benzene] + C1CCCC1
x2 = 0
Conditions	mass density [kg/m3]	refractive index	speed of sound [m/s]
[3]	857.5	–	1230.5
[4]	–	1.48777	–

c1ccccc1 [benzene] + C1CCCCC1
x2 = 0
Conditions	mass density [kg/m3]	refractive index	speed of sound [m/s]
[3]	857.5	–	1230.5
[4]	–	1.48777	–

c1ccccc1 [benzene] + CC1CCCCC1
x2 = 0
Conditions	mass density [kg/m3]	refractive index	speed of sound [m/s]
[3]	857.5	–	1230.5
[4]	–	1.48777	–

C1CCCCC1 [cyclohexane]
[1]
Conditions	refractive index
298.15 K	1.42353
313.15 K	1.41513

[2]
Conditions	mass density, 298.15 K [kg/m3]	mass density, 313.15 K [kg/m3]	speed of sound, 313.15 K [m/s]
101 kPa	–	759.6	1181.7
101.33 kPa	773.8	–	–

C1CCCCC1 [cyclohexane] + CCc1ccccc1
x1 = 1
Conditions	mass density [kg/m3]	refractive index	speed of sound [m/s]
[3]	759.6	–	1181.7
[4]	–	1.41513	–

C1CCCCC1 [cyclohexane] + Cc1ccccc1
Conditions	mass density, [3] [kg/m3]	refractive index, [4]	speed of sound, [3] [m/s]
x1 = 0.0377	844.4	1.48212	1236.8
x1 = 0.0967	838.2	1.47761	1230
x1 = 0.1945	828.5	1.47007	1220.1
x1 = 0.2433	823.4	1.46621	1215.4
x1 = 0.3985	808.6	1.45475	1202.3
x1 = 0.5672	793.4	1.44276	1191.4
x1 = 0.5965	790.9	1.44073	1189.8
x1 = 0.7019	781.9	1.43356	1185.1
x1 = 0.7958	774.4	1.4276	1182.2
x1 = 0.9011	766.5	1.42097	1181.2
x1 = 0.95	763	1.41807	1180.9
x1 = 1	759.6	1.41513	1181.7

C1CCCCC1 [cyclohexane] + c1ccccc1
Conditions	mass density, [3] [kg/m3]	refractive index, [4]	speed of sound, [3] [m/s]
x1 = 0.0819	846.2	1.47958	1218.9
x1 = 0.1282	840.2	1.47489	1213.2
x1 = 0.2087	830.1	1.46761	1204.5
x1 = 0.2898	820.5	1.46073	1197
x1 = 0.4018	808.5	1.45171	1188.6
x1 = 0.5047	798.3	1.44414	1183.3
x1 = 0.6058	789.1	1.43724	1179.8
x1 = 0.7	780.9	1.43118	1177.7
x1 = 0.7989	773.2	1.42538	1177.3
x1 = 0.9059	765.7	1.41966	1178.6
x1 = 0.9505	762.7	1.41753	1179.7
x1 = 1	759.6	1.41513	1181.7

C1CCCC1 [cyclopentane]
[1]
Conditions	refractive index
298.15 K	1.40342
313.15 K	1.39456

[2]
Conditions	mass density, 298.15 K [kg/m3]	mass density, 313.15 K [kg/m3]	speed of sound, 313.15 K [m/s]
101 kPa	–	725	1130
101.33 kPa	740	–	–

C1CCCC1 [cyclopentane] + CCc1ccccc1
Conditions	mass density, [3] [kg/m3]	refractive index, [4]	speed of sound, [3] [m/s]
x1 = 0.0393	845.5	1.48234	1251.9
x1 = 0.083	841.2	1.47928	1246.4
x1 = 0.1874	830.5	1.4714	1232.9
x1 = 0.2847	820	1.46405	1219.9
x1 = 0.3689	810.5	1.45715	1209.3
x1 = 0.541	789.9	1.44226	1186.8
x1 = 0.6281	778.7	1.43421	1175.5
x1 = 0.687	770.9	1.42853	1168
x1 = 0.7988	755.3	1.41702	1154
x1 = 0.898	740.8	1.40651	1141.9
x1 = 0.9475	733.2	1.40072	1135.9
x1 = 1	725	1.39456	1130

C1CCCC1 [cyclopentane] + Cc1ccccc1
Conditions	mass density, [3] [kg/m3]	refractive index, [4]	speed of sound, [3] [m/s]
x1 = 0.0418	843.6	1.48201	1235.6
x1 = 0.0924	838	1.47801	1228.7
x1 = 0.1907	826.8	1.46979	1215.8
x1 = 0.2717	817.3	1.46313	1205.2
x1 = 0.3579	807	1.45562	1194.8
x1 = 0.4944	790.4	1.44336	1178.6
x1 = 0.5862	778.9	1.43503	1168.4
x1 = 0.6895	765.8	1.42526	1157.4
x1 = 0.7951	752.2	1.41512	1147.3
x1 = 0.8958	738.9	1.40537	1138.3
x1 = 0.9456	732.3	1.40037	1134.2
x1 = 1	725	1.39456	1130

C1CCCC1 [cyclopentane] + c1ccccc1
Conditions	mass density, [3] [kg/m3]	refractive index, [4]	speed of sound, [3] [m/s]
x1 = 0.0366	852	1.48417	1224.4
x1 = 0.0941	843.4	1.47833	1215.7
x1 = 0.1945	828.6	1.46795	1200.6
x1 = 0.2706	817.8	1.46049	1190.2
x1 = 0.3937	800.7	1.44843	1175.5
x1 = 0.4893	787.8	1.43934	1165
x1 = 0.5917	774.4	1.42988	1155.3
x1 = 0.6893	762.1	1.4211	1147.2
x1 = 0.7983	748.6	1.41158	1139.7
x1 = 0.8971	736.8	1.40315	1134.2
x1 = 0.9471	731	1.39904	1132
x1 = 1	725	1.39456	1130

Reference: the NIST ThermoML archive (doi:10.1021/je8009336)
